In patent publication US12421252B2, “Spiro (isobenzofuranazetidine) compounds for the treatment of autoimmune disease” (Hoffmann-La Roche Inc., priority 2020, dated 2025):

Tests used:
CYP2D6 = molecular target: T1, CYP2D6 (Homo sapiens, UniProt P10635); experiment: CYP inhibition assay in human liver microsome, CYP2D6; assay type: in vitro ADME; details: percentage inhibition, substrate Dextromethorphan 5 μM, <0: not or weak inhibitor
T1 construct: tissue BD-Gentest 452117; host or cells: human liver microsomes
Protocol: (§1) This is a high throughput screening assay used for assessment of reversible inhibition of CYP2C9, CYP2D6, and CYP3A4 activity of test compounds in human liver microsome (HLM) in early discovery stage.
(§2) Procedure 10 mM DMSO stock solutions of test compounds were diluted in DMSO to generate 2 mM intermediate stock solution. 250 nL of intermediate stock solution were transferred in duplicate into 3 separate 384 well microtitre plates (assay-ready plates). A mixture of HLM and each substrate was made up. 45 μL of HLM substrate mix was then transferred to each well of an assay ready plate and mixed. The negative (solvent) and positive controls (standard inhibitor for each CYP) were included in each assay ready plate. The assay ready plate was warmed to 37° C. in an incubator over 10 minutes. 5 μL pre-warmed NADPH regenerating system was added to each incubation well to start the reaction. Final incubation volume was 50 μL. The assay plate then was placed back in the 37° C. incubator. After incubation (10 minutes for CYP2D6) for 5 minutes, incubates were quenched by addition of 50 μL 100% acetonitrile containing internal standards (400 ng/mL 13C6-4′-OH-Diclofenac, 20 ng/mL D3-Dextrorphan and 20 ng/mL D4-1′OH-Midazolam). The supernatants were collected for RapidFire/MS/MS analysis.
(§3) RapidFire online solid phase extraction/sample injection system (Agilent) coupled with API4000 triple quadrupole mass spectrometer (AB Sciex) were used for sample analysis. The mobile phase composed of acetonitrile and water supplemented with 0.1% formic acid. A C4 solid phase extraction cartridge is used for sample separation. MS detection is achieved in positive ion MRM mode.
(§4) Data analysis Peak areas for substrate, metabolite and internal standard are determined using the RapidFire integrator software (version 3.6.12009.12296). Peak area ratios (PAR) of metabolite and internal standard (stable-labelled metabolite) are then calculated. The measurement window for each experiment is then defined: PAR (0% activity)=average PAR for all incubations containing concentrated inhibitor; Par (100% activity)=average PAR for all incubations containing no inhibitor (DMSO controls); % Activity (test inhibitor)=[PAR (test inhibitor)-PAR (0% activity)]/[PAR (100% activity)-PAR (0% activity)]; % Inhibition (test inhibitor)=100-% Activity (test inhibitor).

hTLR9 = molecular target: T2, hTLR9 (Homo sapiens, UniProt Q9NR96); experiment: HEK293-Blue-hTLR-9 cells assay; assay type: cell-based; details: HEK293-Blue-hTLR9 cells, ODN2006 stimulation, 20 hrs, SEAP reporter; read-out: HEK/hTLR9 IC50
T2 sequence (Q9NR96 26-1032): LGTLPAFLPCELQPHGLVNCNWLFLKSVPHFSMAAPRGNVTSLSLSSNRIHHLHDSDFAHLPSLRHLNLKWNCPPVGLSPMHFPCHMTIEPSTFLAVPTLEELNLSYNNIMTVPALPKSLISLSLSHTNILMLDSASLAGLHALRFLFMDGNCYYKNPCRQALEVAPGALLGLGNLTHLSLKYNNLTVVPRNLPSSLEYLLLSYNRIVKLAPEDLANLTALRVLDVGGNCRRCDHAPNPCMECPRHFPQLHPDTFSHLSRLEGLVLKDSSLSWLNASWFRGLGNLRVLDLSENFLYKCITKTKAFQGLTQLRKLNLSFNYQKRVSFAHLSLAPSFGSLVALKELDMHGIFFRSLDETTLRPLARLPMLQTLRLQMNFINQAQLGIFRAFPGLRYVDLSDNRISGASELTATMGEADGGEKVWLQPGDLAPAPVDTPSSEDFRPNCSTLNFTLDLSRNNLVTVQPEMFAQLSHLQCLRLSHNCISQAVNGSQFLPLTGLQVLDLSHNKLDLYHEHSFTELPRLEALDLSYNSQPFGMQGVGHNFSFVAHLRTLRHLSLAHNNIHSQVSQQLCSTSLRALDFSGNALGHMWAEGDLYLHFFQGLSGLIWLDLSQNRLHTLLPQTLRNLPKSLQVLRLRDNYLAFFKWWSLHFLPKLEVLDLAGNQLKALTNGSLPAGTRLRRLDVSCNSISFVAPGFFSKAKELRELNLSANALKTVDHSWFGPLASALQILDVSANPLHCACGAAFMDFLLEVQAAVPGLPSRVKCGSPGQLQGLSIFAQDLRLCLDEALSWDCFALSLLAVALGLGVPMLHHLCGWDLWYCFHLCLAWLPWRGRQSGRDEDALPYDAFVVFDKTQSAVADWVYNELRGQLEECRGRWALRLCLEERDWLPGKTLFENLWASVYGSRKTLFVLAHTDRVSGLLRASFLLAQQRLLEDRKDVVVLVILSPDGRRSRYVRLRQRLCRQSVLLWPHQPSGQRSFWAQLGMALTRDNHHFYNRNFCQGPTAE
Excerpt: HEK293-Blue-hTLR-9 cells assay: A stable HEK293-Blue-hTLR-9 cell line was purchased from InvivoGen (Cat. #: hkb-htlr9, San Diego, California, USA). These cells were originally designed for studying the stimulation of human TLR9 by monitoring the activation of NF-κB. A SEAP (secreted embryonic alkaline phosphatase) reporter gene was placed under the control of the IFN-β minimal promoter fused to five NF-κB and AP-1-binding sites. The SEAP was induced by activating NF-κB and AP-1 via stimulating HEK-Blue hTLR9 cells with TLR9 ligands. Therefore the reporter expression was declined by TLR9 antagonist under the stimulation of a ligand, such as ODN2006 (Cat. #: tlrl-2006-1, Invivogen, San Diego, California, USA), for incubation of 20 hrs. The cell culture supernatant SEAP reporter activity was determined using QUANTI-Blue™ kit (Cat. #: rep-qb1, Invivogen, San Diego, California, USA) at a wavelength of 640 nm, a detection medium that turns purple or blue in the presence of alkaline phosphatase.
HEK293-Blue-hTLR9 cells were incubated at a density of 250,000˜450,000 cells/mL in a volume of 170 μL in a 96-well plate in Dulbecco's Modified Eagle's medium (DMEM) containing 4.5 g/L glucose, 50 U/mL penicillin, […], 2 mM L-glutamine, 10% (v/v) heat-inactivated fetal bovine serum with addition of 20 μL test compound in a serial dilution in the presence of final DMSO at 1% and 10 μL of 20 uM ODN2006 in above DMEM, perform incubation under 37° C. in a CO2 incubator for 20 hrs. Then 20 μL of the supernatant from each well was incubated with 180 μL Quanti-blue substrate solution at 37° C. for 2 h and the absorbance was read at 620-655 nm using a spectrophotometer. The signaling pathway that TLR9 activation leads to downstream NF-κB activation has been widely accepted, and therefore similar reporter assay was modified for evaluating TLR9 antagonist.

CYP2C9 = molecular target: T3, CYP2C9 (Homo sapiens, UniProt P11712); experiment: CYP inhibition assay in human liver microsome, CYP2C9; assay type: in vitro ADME; details: percentage inhibition, substrate Diclofenac 5 μM, <0: not or weak inhibitor
T3 construct: tissue BD-Gentest 452117; host or cells: human liver microsomes
Protocol: as §1, §2, §3, §4

T1 sequence (P10635 whole entry): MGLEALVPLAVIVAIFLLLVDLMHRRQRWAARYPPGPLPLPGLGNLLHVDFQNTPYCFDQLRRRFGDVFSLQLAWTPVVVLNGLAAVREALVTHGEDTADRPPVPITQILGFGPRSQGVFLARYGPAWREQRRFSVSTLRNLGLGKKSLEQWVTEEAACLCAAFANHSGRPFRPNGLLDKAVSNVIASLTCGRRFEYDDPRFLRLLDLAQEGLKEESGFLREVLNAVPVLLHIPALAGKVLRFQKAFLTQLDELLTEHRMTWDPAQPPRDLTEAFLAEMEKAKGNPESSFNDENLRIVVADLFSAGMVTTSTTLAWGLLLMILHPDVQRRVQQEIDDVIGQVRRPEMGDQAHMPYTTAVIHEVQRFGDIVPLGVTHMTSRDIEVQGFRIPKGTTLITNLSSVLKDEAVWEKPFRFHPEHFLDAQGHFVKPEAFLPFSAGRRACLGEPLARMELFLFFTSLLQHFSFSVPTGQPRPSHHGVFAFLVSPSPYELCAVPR
T3 sequence (P11712 whole entry): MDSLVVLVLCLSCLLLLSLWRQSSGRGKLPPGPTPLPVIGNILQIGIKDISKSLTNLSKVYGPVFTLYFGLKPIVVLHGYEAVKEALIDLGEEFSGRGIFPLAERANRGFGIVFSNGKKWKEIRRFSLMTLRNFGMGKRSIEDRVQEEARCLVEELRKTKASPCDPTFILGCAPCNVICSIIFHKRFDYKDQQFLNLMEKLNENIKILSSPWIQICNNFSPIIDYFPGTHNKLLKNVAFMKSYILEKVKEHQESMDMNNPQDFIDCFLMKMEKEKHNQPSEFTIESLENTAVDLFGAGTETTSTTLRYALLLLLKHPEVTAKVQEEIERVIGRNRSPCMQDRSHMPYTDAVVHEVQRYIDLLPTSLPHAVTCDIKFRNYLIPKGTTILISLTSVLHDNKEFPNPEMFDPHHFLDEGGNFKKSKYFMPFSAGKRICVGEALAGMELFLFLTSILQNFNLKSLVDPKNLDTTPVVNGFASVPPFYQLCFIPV

CYP (%) 2D6 (CYP2D6)	IC50 (hTLR9)	CYP (%) 2C9 (CYP2C9)	Structure (SMILES)
−2%	68 nM	0%	C[C@@H]1CN(c2ccc(C#N)n3nccc23)C[C@H](CN2CC3(C2)OCc2cc(N4CC5(CNCCO5)C4)ccc23)O1 [Example 7, 4-[(2R,6S)-2-methyl-6-[[6-(5-oxa-2,8-diazaspiro[3.5]nonan-2-yl)spiro[1H-isobenzofuran-3,3′-azetidine]-1′-yl]methyl]morpholin-4-yl]pyrazolo[1,5-a]pyridine-7-carbonitrile]
5%	55 nM	4.5%	[2H]c1ccc2c(N3C[C@H](CN4CC5(C4)OCc4cc(N6CC(C)(N)C6)cnc45)O[C@H](C)C3)ccc(C#N)c2n1 [Example 21, 5-[(2S,6R)-2-[[3-(3-amino-3-methyl-azetidin-1-yl)spiro[5H-furo[3,4-b]pyridine-7,3′-azetidine]-1′-yl]methyl]-6-methyl-morpholin-4-yl]-2-deuterio-quinoline-8-carbonitrile]
18.5%	32 nM	3.5%	[2H]c1ccc2c(N3C[C@H](CN4CC5(C4)OCc4cc(N6C[C@H]7NCCO[C@@H]7C6)ccc45)O[C@H](C)C3)ccc(C#N)c2n1 [Example 17, 5-[(2S,6R)-2-[[6-[(4aR,7aR)-3,4,4a,5,7,7a-hexahydro-2H-pyrrolo[3,4-b][1,4]oxazin-6-yl]spiro[1H-isobenzofuran-3,3′-azetidine]-1′-yl]methyl]-6-methyl-morpholin-4-yl]-2-deuterio-quinoline-8-carbonitrile]
3.5%	86 nM	21%	C[C@@H]1CN(c2ccc(C#N)n3ncc(F)c23)C[C@H](CN2CC3(C2)OCc2cc(N4CC(C)(N)C4)ncc23)O1 [Example 24, 4-[(2S,6R)-2-[[6-(3-amino-3-methyl-azetidin-1-yl)spiro[1H-furo[3,4-c]pyridine-3,3′-azetidine]-1′-yl]methyl]-6-methyl-morpholin-4-yl]-3-fluoro-pyrazolo[1,5-a]pyridine-7-carbonitrile]
–	90 nM	–	C[C@@H]1CN(c2ccc(C#N)n3ncc(F)c23)C[C@H](CN2CC3(C2)OCc2cc(N4CCNCC4)ccc23)O1 [Example 6, 3-fluoro-4-[(2R,6S)-2-methyl-6-[(6-piperazin-1-ylspiro[1H-isobenzofuran-3,3′-azetidine]-1′-yl)methyl]morpholin-4-yl]pyrazolo[1,5-a]pyridine-7-carbonitrile]
13%	32 nM	13.5%	[2H]c1ccc2c(N3C[C@H](CN4CC5(C4)OCc4cc(N6CC(N)C6)cnc45)O[C@H](C)C3)ccc(C#N)c2n1 [Example 20, 5-[(2S,6R)-2-[[3-(3-aminoazetidin-1-yl)spiro[5H-furo[3,4-b]pyridine-7,3′-azetidine]-1′-yl]methyl]-6-methyl-morpholin-4-yl]-2-deuterio-quinoline-8-carbonitrile]
–	160 nM	–	[2H]c1ccc2c(N3C[C@H](CN4CC5(C4)OCc4cc(N6C[C@H]7NCCO[C@@H]7C6)ncc45)O[C@H](C)C3)ccc(C#N)c2n1 [Example 28, 5-[(2S,6R)-2-[[6-[(4aR,7aR)-3,4,4a,5,7,7a-hexahydro-2H-pyrrolo[3,4-b][1,4]oxazin-6-yl]spiro[1H-furo[3,4-c]pyridine-3,3′-azetidine]-1′-yl]methyl]-6-methyl-morpholin-4-yl]-2-deuterio-quinoline-8-carbonitrile]
–	61 nM	–	C[C@@H]1CN(c2ccc(C#N)n3ncc(F)c23)C[C@H](CN2CC3(C2)OCc2cc(N4C[C@H](N)[C@@H](O)C4)ccc23)O1 [Example 10, 4-[(2S,6R)-2-[[6-[(3S,4S)-3-amino-4-hydroxy-pyrrolidin-1-yl]spiro[1H-isobenzofuran-3,3′-azetidine]-1′-yl]methyl]-6-methyl-morpholin-4-yl]-3-fluoro-pyrazolo[1,5-a]pyridine-7-carbonitrile]
